According to patent US20230082430A1 (C4 Therapeutics, Inc., priority 2019, published 2023):

Tested on: NCIH929.1 cells
Test: Cell viability assay for Table 2 (CellTiter-Glo 2.0, ATP quantification, 96 hr)
Format: cell-based
Conditions: 96 h
Description: Cell Viability Assay for Table 2
(§1) CellTiter-Glo® 2.0 Assay was purchased from Promega (Madison, Wis., USA). NCIH929.1 cell line was purchased from ATCC (Manassas, Va., USA). Cell culture flasks and 384-well microplates were acquired from VWR (Radnor, Pa., USA).

Q: For O=C1CCC(N2C(=O)c3cccc4c(Cc5cn(C6CCN(CC7(C(F)(F)F)CC7)CC6)nc5Cl)ccc2c34)C(=O)N1 (stereo not shown) [Compound 201, 3-[6-[[3-chloro-1-[1-[[1-(trifluoromethyl)cyclopropyl]methyl]-4-piperidyl]pyrazol-4-yl]methyl]-2-oxo-benzo[cd]indol-1-yl]piperidine-2,6-dione], which IC50 is on record?
A: < 1 nM

Same assay, conditions: 96 h, NCIH929.1 cell viability, 96 hr, top concentration 1 μM, 14 points half log titration; read-out: IC50

Q: How did the IC50 turn out when CC1(CN2CCC(n3cc(Cc4ccc5c6c(cccc46)C(=O)N5C4CCC(=O)NC4=O)cn3)CC2)CCC1 (single isomer, unassigned) [Compound 236, 3-[6-[[1-[1-[(1-methylcyclobutyl)methyl]-4-piperidyl]pyrazol-4-yl]methyl]-2-oxo-benzo[cd]indol-1-yl]piperidine-2,6-dione] was run?
A: < 1 nM

Q: CC(=O)N1CCN(Cc2ccc(Cc3ccc4c5c(cccc35)C(=O)N4C3CCC(=O)NC3=O)cc2)CC1 (stereo not shown) [Compound 108, 3-(6-(4-((4-acetylpiperazin-1-yl)methyl)benzyl)-2-oxobenzo[cd]indol-1(2H)-yl)piperidine-2,6-dione] was tested. Which IC50 did it give?
A: < 1 nM

Q: Which IC50 does the source give for O=C1CCC(N2C(=O)c3cccc4c(Cc5cnn(C6CCN(C(=O)C78CC(CO7)C8)CC6)c5)ccc2c34)C(=O)N1 (stereo not shown) [Compound 48, 3-(6-((1-(1-(2-oxabicyclo[2.1.1]hexane-1-carbonyl)piperidin-4-yl)-1H-pyrazol-4-yl)methyl)-2-oxobenzo[cd]indol-1(2H)-yl)piperidine-2,6-dione] here?
A: < 1 nM

Q: With CC1(C(=O)N2CCC(C)(n3cc(Cc4ccc5c6c(cccc46)C(=O)N5C4CCC(=O)NC4=O)cn3)CC2)CCC1 (stereo not shown) [Compound 92, 3-(6-((1-(4-methyl-1-(1-methylcyclobutane-1-carbonyl)piperidin-4-yl)-1H-pyrazol-4-yl)methyl)-2-oxobenzo[cd]indol-1(2H)-yl)piperidine-2,6-dione] as the molecule, how does the IC50 read?
A: < 1 nM

Q: How did the IC50 turn out when CC1(C(=O)N2CCC(n3cc(Cc4ccc5c6c(cccc46)C(=O)N5C4CCC(=O)NC4=O)cn3)CC2)CCOCC1 (stereo not shown) [Compound 41, 3-(6-((1-(1-(4-methyltetrahydro-2H-pyran-4-carbonyl)piperidin-4-yl)-1H-pyrazol-4-yl)methyl)-2-oxobenzo[cd]indol-1(2H)-yl)piperidine-2,6-dione] was run?
A: < 1 nM

Q: How did the IC50 turn out when O=C1CCC(N2C(=O)c3cccc4c(Cc5cnn(C6CCN([C@@H]7CCC8(CCC8)C7)CC6)c5)ccc2c34)C(=O)N1 (stereo partly shown) [Compound 243] was run?
A: < 1 nM

Q: With CN(Cc1ccc(Cc2ccc3c4c(cccc24)C(=O)N3C2CCC(=O)NC2=O)cc1)c1ccccc1 (stereo not shown) [Compound 229, 3-(6-(4-((methyl(phenyl)amino)methyl)benzyl)-2-oxobenzo[cd]indol-1(2H)-yl)piperidine-2,6-dione] as the molecule, how does the IC50 read?
A: < 1 nM

Q: How did the IC50 turn out when CC1(n2cc(Cc3ccc4c5c(cccc35)C(=O)N4C3CCC(=O)NC3=O)cn2)CCN(C(=O)C23COC(C2)C3)CC1 (single isomer, unassigned) [Compound 238, 3-[6-[[1-[4-methyl-1-(2-oxabicyclo[2.1.1]hexane-4-carbonyl)-4-piperidyl]pyrazol-4-yl]methyl]-2-oxo-benzo[cd]indol-1-yl]piperidine-2,6-dione] was run?
A: < 1 nM

Q: With O=C1CCC(N2C(=O)c3cccc4c(Cc5cnn(C6CCN(CC7(F)CC7)CC6)c5)ccc2c34)C(=O)N1 (stereo not shown) [Compound 65, 3-(6-((1-(1-((1-fluorocyclopropyl)methyl)piperidin-4-yl)-1H-pyrazol-4-yl)methyl)-2-oxobenzo[cd]indol-1(2H)-yl)piperidine-2,6-dione] as the molecule, how does the IC50 read?
A: < 1 nM

Q: Which IC50 does the source give for O=C1CCC(N2C(=O)c3cccc4c(Cc5cnn(C6(CO)CCN(C(=O)C7(C(F)(F)F)CC7)CC6)c5)ccc2c34)C(=O)N1 (stereo not shown) [Compound 195, 3-[6-[[1-[4-(hydroxymethyl)-1-[1-(trifluoromethyl)cyclopropanecarbonyl]-4-piperidyl]pyrazol-4-yl]methyl]-2-oxo-benzo[cd]indol-1-yl]piperidine-2,6-dione] here?
A: < 1 nM

Q: For O=C1CCC(N2C(=O)c3cccc4c(Cc5ccc(CN6CCN(c7ccccc7)CC6)cc5)ccc2c34)C(=O)N1 (stereo not shown) [Compound 210, 3-(2-oxo-6-(4-((4-phenylpiperazin-1-yl)methyl)benzyl)benzo[cd]indol-1(2H)-yl)piperidine-2,6-dione], which IC50 is on record?
A: < 1 nM

Q: How did the IC50 turn out when O=C1CCC(N2C(=O)c3cccc4c(Cc5ccc(CN6CCC7(CCCO7)CC6)cc5)cnc2c34)C(=O)N1 (stereo not shown) [Compound 222, 3-[23-[[4-(1-oxa-8-azaspiro[4.5]decan-8-ylmethyl)phenyl]methyl]-28-oxo-31,34-diazatricyclododeca-(2),1(21),7(23),22(24),25(31)-pentaen-34-yl]piperidine-2,6-dione] was run?
A: < 1 nM

Q: O=C1CCC(N2C(=O)c3cccc4c(Oc5ccc(CN6CCOCC6)cc5)ccc2c34)C(=O)N1 (stereo not shown) [Compound 273, 3-(6-(4-(morpholinomethyl)phenoxy)-2-oxobenzo[cd]indol-1(2H)-yl)piperidine-2,6-dione] was tested. Which IC50 did it give?
A: < 100 nM

Q: How did the IC50 turn out when CC1(C(=O)N2CCN(Cc3ccc(Cc4ccc5c6c(cccc46)C(=O)N5C4CCC(=O)NC4=O)cc3)CC2)CCC1 (stereo not shown) [Compound 110, 3-(6-(4-((4-(1-methylcyclobutane-1-carbonyl)piperazin-1-yl)methyl)benzyl)-2-oxobenzo[cd]indol-1(2H)-yl)piperidine-2,6-dione] was run?
A: < 1 nM

Q: Which IC50 does the source give for CC1(n2cc(Cc3ccc4c5c(cccc35)C(=O)N4C3CCC(=O)NC3=O)nn2)CCN(C(=O)C2(C(F)(F)F)CC2)CC1 (stereo not shown) [Compound 211, 3-(6-((1-(4-methyl-1-(1-(trifluoromethyl)cyclopropane-1-carbonyl)piperidin-4-yl)-1H-1,2,3-triazol-4-yl)methyl)-2-oxobenzo[cd]indol-1(2H)-yl)piperidine-2,6-dione] here?
A: < 1 nM

Same assay, conditions: NCIH929.1 cell viability, 96 hr, top concentration 1 μM, 14 points half log titration; read-out: IC50

Q: Which IC50 does the source give for O=C1CCC(N2C(=O)c3cccc4c(Cc5ccc(CN6CCN(S(=O)(=O)CC(F)(F)F)CC6)cc5)ccc2c34)C(=O)N1 (single isomer, unassigned) [Compound 160, 3-(2-Oxo-6-{4-[4-(2,2,2-trifluoro-ethanesulfonyl)-piperazin-1-ylmethyl]-benzyl}-2H-benzo[cd]indol-1-yl)-piperidine-2,6-dione] here?
A: < 1 nM

Q: With CC1(CN2CCC(n3cc(Cc4ccc5c6c(cccc46)C(=O)N5C4CCC(=O)NC4=O)cn3)C(F)(F)C2)CCC1 (single isomer, unassigned) [Compound 187, 3-[6-[[1-[3,3-difluoro-1-[(1-methylcyclobutyl)methyl]-4-piperidyl]pyrazol-4-yl]methyl]-2-oxo-benzo[cd]indol-1-yl]piperidine-2,6-dione] as the molecule, how does the IC50 read?
A: < 1 nM

Tested on: NCIH929.1 cells
Test: Cell viability assay for Table 1 (CellTiter-Glo 2.0, ATP quantification, 96 hr)
Format: cell-based
Conditions: NCIH929.1 cell viability, top concentration 1 μM, 10 points half log titration, cytostatic control
Method: Example 171. Cell Viability Assay for Table 1
as §1, with “RPMI 1640 medium, fetal bovine serum (FBS) and 2-mercaptoethanol were purchased from Gibco (Grand Island, N.Y., USA). CellTiter-Glo®” for “CellTiter-Glo®”
At the same day of compound treatment, CellTiter-Glo® 2.0 was added to a plate with cells treated in the absence of the test compound to establish Cytostatic control value (Gm).

Q: Which GI50 does the source give for CC1(C(=O)N2CCC(n3cc(Cc4ccc5c6c(cccc46)C(=O)N5C4CCC(=O)NC4=O)cn3)CC2)CCC1 (stereo not shown) [Compound 4, 3-(6-((1-(1-(1-Methylcyclobutane-1-carbonyl)piperidin-4-yl)-1H-pyrazol-4-yl)methyl)-2-oxobenzo[cd]indol-1(2H)-yl)piperidine-2,6-dione] here?
A: < 1 nM

Q: For CC1(n2cc(Cc3ccc4c5c(cccc35)C(=O)N4C3CCC(=O)NC3=O)cn2)CCN(C(=O)C23C4C5C6C4C2C6C53)CC1 (stereo not shown) [Compound 18, 3-(6-((1-(1-(Cubane-1-carbonyl)-4-methylpiperidin-4-yl)-1H-pyrazol-4-yl)methyl)-2-oxobenzo[cd]indol-1(2H)-yl)piperidine-2,6-dione], which GI50 is on record?
A: < 1 nM

Q: For O=C1CCC(N2C(=O)c3cccc4c(Cc5cnn(C6CCN(C(=O)C78C9C%10C%11C9C7C%11C%108)CC6)c5)ccc2c34)C(=O)N1 (stereo not shown) [Compound 3, 3-(6-((1-(1-(Cubane-1-carbonyl)piperidin-4-yl)-1H-pyrazol-4-yl)methyl)-2-oxobenzo[cd]indol-1(2H)-yl)piperidine-2,6-dione], which GI50 is on record?
A: < 1 nM

Q: How did the GI50 turn out when CC(C)(C)OC(=O)N1CCC(n2cc(Cc3ccc4c5c(cccc35)C(=O)N4C3CCC(=O)NC3=O)cn2)CC1 (stereo not shown) [Compound 2, tert-Butyl 4-(4-((1-(2,6-Dioxopiperidin-3-yl)-2-oxo-1,2-dihydrobenzo[cd]indol-6-yl)methyl)-1H-pyrazol-1-yl)piperidine-1-carboxylate] was run?
A: < 1 nM
